Assay results: patent publication US4568689A, “Pharmaceutical preparation for the treatment of hypertensive disease and myocardial infarction” (priority 1983, dated 1986)
“Also recorded” adds a separate entry of the source.

System: experimental necrosis of myocardium caused by introduction of adrenaline
Assay: histological analysis of experimental necrosis of myocardium caused by adrenaline
Format: in vivo, rats of the Wistar line
Protocol: A comparative study of the effects produced by the preparation according to the present invention and finoptin on an experimental necrosis of myocardium caused by introduction of adrenaline.
The experiments were carried out on rats of the Wistar line of gregarious keeping, both sexes, with a mass of 170 to 225 g. Each preparation was studied on a separate group of animals: (group of adrenaline-control, group of finoptin, group of the preparation according to the present invention). 72 rats were used in the experiments altogether. Injuries of myocardium were caused by way of a single-time subcutaneous administration of a 0.1% solution of adrenaline hydrochloride in the dose of 3 mg per kg of the rat's bodyweight. […] The preparation of this invention was administered subcutaneously, finoptin-per os. On the first day of the experiment the preparations were administered 30 minutes after injection of adrenaline hydrochloride. The experiment lasted for 19 days. Slaughters were effected on the 4th, 8th, 12th and 19th day of the experiment. The animals were decapitated. The heart was fixed in a 10% solution of neutral formalin and sealed in paraffin. Serial sections with the thickness of 5-6μ were coloured by Ehrlich hematoxylin-eosin. The state of vessels of myocardium, cardiomyocytes and interstitial tissue were evaluated by histological analysis.

[1] = 4th day, grade/number of animals (6)
[2] = 8th day, grade/number of animals (6)
[3] = 12th day, grade/number of animals (6)
[4] = 19th day, grade/number of animals (5)

Structure (SMILES): C[N+]1(C)CC(CC(=O)[O-])C(=O)N1 (centres unmarked) [Preparation of this invention, (1,1-dimethyl-3-oxopyrazolin-1-io-4-yl)acetate]
- changes in cardiomyocytes (4th day, 25 mg/kg): The granular-lumpy decomposition, necrosis of 3-5 cells is observed in a half of the investigated animals
- changes in interstitial tissue (4th day, 25 mg/kg): The formation of granulomae on the side of the interstitial tissue is observed in all of the animals
- changes in vessels (4th day, 25 mg/kg): the left ventricle capillaries are plethoric. In two cases insignificant infiltrations of the adventitia with lymphoid cells are observed
- edema (interstitial tissue) [1]: 0/6
- necrobiotic regions in the wall [1]: 0/6
- necrosis of more than 5 cells [1]: 0/6
- wall necrosis (vessels) [1]: 0/6
- overall therapeutic effect on the myocardium (4th, 8th, 12th and 19th day): possesses a clearly manifested therapeutic effect allowing no significant changes in the myocardium, prevents the growth of the scarring tissue, contributes to the restoration of morphological structures of the myocardium
- changes in interstitial tissue (8th day, 25 mg/kg): the formation of the scarring tissue is to a lesser extent than in the control group
- changes in vessels (8th day, 25 mg/kg): the coronary vessels are without changes; in some cases insignificantly plethoric vessels and changes in cells in the form of swelling are observed
- diffusive round-cell infiltration [2]: 0/6
- edema (interstitial tissue) [2]: 0/6
- infiltration of the adventitia with lymphoid cells [2]: 0/6
- necrobiotic regions in the wall [2]: 0/6
- necrosis of more than 5 cells [2]: 0/6
- nuclei (pyknosis) [2]: 0/6
- wall necrosis (vessels) [2]: 0/6
- changes in cardiomyocytes (12th day, 25 mg/kg): In comparison with the 8th day of the experiment eosinophilia and contructure type changes are decreased
- changes in interstitial tissue (12th day, 25 mg/kg): the scarring tissue formation is more distinctly pronounced. These changes are substantially less revealed than the changes in the control group (adrenaline)
- changes in vessels (12th day, 25 mg/kg): an insignificant plethora of the vessels is observed on the 12th day of the experiment
- Nuclei (pykhnosis) [3]: 0/6
- diffusive round-cell infiltration [3]: 0/6
- edema (interstitial tissue) [3]: 0/6
- infiltration of the adventitia with lymphoid cells [3]: 0/5
- necrobiotic regions with changes in the vessel wall [3]: 0/6
- necrosis of more than 5 cells [3]: 0/6
- wall necrosis (vessels) [3]: 0/6
- changes in cardiomyocytes (19th day, 25 mg/kg): In half of the animals the granular-lumpy decomposition is less pronounced. Necrosis of individual cells and eosinophilia, as well as contructure type changes are also observed
- changes in connective tissue (19th day, 25 mg/kg): a less pronounced formation of the scarring tissue is to be noted as compared to the control group
- changes in vessels (19th day, 25 mg/kg): By the 19th day this phenomena becomes more clearly pronounced; also recorded: no changes were noticed on the part of the coronary vessels. The plethora of capillaries in the left ventricle wall is noticed
- changes in the endothelium [4]: 0/5
- infiltration of the adventitia with lymphoid cells [4]: 0/5
- necrobiotic regions with changes in the vessel wall [4]: 0/5
- necrosis of more than 5 cells [4]: 0/5
- nuclei (pyknosis) [4]: 0/5
